What was measured:
Blast T cell = experiment: Cell proliferation test of IL-2 stimulated Blast T cell; type: cell-based; conditions: Homo sapiens; IL-2 stimulated Blast T cell proliferation, 72 hours
Description: Inhibiting test of the compounds of the invention on proliferation of Blast T cell and TF-1 cell (American type culture collection) was carried out by the following method. The tested compounds […], and […] were dissolved in dimethyl sulfoxide from 0.0006 to 10 μM in quadruplicate dilutions. […] 10 μg/ml […] was added to stimulate and obtain cells with a density of 2×10^6/mL, which were incubated for 3 days. The cells were washed with phosphate buffer for three times and IL-2 (100 u/ml) was added to stimulate for 1 week. Cells were suspended using the culture medium and seeded at 5×10^4 cell/well density into 96-well plates, and incubated for 1 h with the prepared test compound or DMSO control at various concentrations from 0.0006 to 10 μM diluted by 4-fold volume. After incubation with 20 u/ml of IL-2 (50 μl/well without reference well) for 72 hours, Celltiter Glo® reagent (Promega, G7571) was added and mixed for 5 minutes, then incubated for 30 minutes at room temperature. The luminescence value was read on SpectraMax L (Molecular Device). […] The IC50 values of the corresponding compounds were then obtained by fitting by using the XLFit fitting tool in excel.

TF-1 cell = TF-1 cell proliferation test; type: cell-based; conditions: Homo sapiens, 72 h
Description: Inhibiting test of the compounds of the invention on proliferation of Blast T cell and TF-1 cell (American type culture collection) was carried out by the following method. The tested compounds […], and […] were dissolved in dimethyl sulfoxide from 0.0006 to 10 μM in quadruplicate dilutions. […] The luminescence value was read on Microplate Reader (Molecular Device). […] The IC50 values of the corresponding compounds were then obtained by fitting by using the XLFit fitting tool in excel.

JAK3 = JAK3 (Homo sapiens (Human), UniProt P52333); experiment: JAK3 LANCE Ultra kinase assay; type: biochemical; conditions: 4 uM ATP
Chain of JAK3 (P52333 whole entry): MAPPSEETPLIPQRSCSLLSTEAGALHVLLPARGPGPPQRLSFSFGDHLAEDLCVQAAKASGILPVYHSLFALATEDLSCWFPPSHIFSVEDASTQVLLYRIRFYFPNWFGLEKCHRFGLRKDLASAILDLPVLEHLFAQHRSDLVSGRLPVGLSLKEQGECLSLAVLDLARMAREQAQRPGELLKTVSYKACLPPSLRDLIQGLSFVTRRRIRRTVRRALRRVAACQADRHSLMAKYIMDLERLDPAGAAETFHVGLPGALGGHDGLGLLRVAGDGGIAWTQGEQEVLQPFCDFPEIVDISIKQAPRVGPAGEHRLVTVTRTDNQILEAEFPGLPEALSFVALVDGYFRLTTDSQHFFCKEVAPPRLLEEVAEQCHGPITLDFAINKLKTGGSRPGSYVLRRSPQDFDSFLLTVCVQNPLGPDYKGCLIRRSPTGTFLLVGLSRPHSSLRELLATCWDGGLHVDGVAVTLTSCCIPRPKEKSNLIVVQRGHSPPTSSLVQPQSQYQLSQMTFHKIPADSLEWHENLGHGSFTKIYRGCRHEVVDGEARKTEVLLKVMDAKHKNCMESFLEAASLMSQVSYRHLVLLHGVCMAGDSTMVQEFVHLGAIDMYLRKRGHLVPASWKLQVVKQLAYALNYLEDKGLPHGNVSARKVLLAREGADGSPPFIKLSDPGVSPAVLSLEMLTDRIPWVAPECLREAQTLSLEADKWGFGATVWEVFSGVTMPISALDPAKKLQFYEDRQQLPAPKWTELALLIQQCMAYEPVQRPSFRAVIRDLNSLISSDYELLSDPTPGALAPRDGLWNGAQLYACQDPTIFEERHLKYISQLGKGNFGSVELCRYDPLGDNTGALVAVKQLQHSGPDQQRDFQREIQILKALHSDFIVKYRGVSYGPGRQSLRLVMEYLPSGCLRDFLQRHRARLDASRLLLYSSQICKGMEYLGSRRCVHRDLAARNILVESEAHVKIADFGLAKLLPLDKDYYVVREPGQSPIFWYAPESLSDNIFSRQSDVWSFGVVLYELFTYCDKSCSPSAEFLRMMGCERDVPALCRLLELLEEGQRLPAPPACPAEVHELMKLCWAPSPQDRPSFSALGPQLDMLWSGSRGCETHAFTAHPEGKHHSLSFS

JAK2 = JAK2 (Homo sapiens (Human), UniProt O60674); experiment: JAK2 LANCE Ultra kinase assay; type: biochemical; conditions: 12 uM ATP
Chain of JAK2 (O60674 whole entry): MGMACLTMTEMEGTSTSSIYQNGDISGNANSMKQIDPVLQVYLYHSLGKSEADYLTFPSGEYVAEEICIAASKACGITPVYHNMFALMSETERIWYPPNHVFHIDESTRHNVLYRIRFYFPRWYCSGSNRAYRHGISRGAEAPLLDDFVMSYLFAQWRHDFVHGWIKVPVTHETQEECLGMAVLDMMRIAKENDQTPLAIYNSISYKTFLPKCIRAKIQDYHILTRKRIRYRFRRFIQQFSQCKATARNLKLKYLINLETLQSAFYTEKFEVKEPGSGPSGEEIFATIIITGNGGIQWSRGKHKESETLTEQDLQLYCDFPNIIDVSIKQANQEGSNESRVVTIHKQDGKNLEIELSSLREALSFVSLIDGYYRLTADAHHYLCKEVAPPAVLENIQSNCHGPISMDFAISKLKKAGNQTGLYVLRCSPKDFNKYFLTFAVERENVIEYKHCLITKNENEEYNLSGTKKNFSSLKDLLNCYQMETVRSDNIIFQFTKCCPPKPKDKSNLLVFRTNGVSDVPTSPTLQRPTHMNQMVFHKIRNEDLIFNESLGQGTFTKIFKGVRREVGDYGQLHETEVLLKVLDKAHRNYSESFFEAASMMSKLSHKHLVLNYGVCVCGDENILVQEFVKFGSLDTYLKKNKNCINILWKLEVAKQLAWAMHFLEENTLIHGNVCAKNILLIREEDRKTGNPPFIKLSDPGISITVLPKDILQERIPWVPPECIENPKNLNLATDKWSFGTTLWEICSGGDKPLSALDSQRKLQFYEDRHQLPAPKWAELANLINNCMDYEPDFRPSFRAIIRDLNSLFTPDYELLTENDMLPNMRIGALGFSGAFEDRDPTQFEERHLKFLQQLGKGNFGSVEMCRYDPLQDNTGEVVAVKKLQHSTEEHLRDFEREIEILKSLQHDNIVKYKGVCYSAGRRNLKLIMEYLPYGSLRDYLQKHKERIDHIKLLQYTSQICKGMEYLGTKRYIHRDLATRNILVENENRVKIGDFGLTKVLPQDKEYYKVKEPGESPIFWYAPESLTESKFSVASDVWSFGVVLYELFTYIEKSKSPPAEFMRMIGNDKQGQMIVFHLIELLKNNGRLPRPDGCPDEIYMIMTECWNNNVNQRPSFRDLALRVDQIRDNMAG

JAK1 = JAK1 (Homo sapiens (Human), UniProt P23458); experiment: JAK1 LANCE Ultra kinase assay; type: biochemical; conditions: for IC50: 38 uM ATP; for JAK2/JAK1: ratio of IC50 JAK2 to IC50 JAK1
Chain of JAK1 (P23458 whole entry): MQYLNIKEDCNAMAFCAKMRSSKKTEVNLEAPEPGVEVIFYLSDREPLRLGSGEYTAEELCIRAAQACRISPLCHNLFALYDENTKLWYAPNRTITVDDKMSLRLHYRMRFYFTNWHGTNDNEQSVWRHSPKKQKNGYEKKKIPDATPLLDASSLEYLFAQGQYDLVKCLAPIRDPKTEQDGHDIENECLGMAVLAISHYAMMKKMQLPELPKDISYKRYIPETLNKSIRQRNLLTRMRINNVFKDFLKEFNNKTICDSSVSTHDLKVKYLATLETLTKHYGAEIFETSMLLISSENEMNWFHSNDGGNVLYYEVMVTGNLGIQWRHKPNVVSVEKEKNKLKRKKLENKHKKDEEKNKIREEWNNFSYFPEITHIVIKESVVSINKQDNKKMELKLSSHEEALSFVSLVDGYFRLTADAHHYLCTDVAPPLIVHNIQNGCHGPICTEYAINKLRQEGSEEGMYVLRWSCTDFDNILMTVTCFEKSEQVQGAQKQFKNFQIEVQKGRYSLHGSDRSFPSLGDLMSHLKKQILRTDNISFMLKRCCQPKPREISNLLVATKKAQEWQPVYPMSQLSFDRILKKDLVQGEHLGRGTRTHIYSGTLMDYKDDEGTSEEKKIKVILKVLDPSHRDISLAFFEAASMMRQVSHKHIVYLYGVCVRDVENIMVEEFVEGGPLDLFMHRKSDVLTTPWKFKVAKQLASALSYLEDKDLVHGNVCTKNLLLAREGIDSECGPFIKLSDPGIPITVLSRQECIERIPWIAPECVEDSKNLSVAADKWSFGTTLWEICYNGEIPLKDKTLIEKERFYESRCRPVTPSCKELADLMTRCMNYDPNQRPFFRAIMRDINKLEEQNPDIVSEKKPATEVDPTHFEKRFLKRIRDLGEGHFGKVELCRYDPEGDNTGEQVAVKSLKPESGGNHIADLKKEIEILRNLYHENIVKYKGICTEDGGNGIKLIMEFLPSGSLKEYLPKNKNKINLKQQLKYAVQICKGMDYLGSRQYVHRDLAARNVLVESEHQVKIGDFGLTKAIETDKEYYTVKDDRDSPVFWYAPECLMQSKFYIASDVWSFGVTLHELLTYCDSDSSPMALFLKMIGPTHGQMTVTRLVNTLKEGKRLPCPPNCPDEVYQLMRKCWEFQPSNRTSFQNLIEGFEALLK
Description: Inhibition test on activity of JAK kinase in vitro was carried out by the following methods.
JAK1 LANCE® Ultra assay, JAK2 LANCE® Ultra assay and JAK3 LANCE® Ultra assay were used to carry out the test separately, and kits of the above assays were supplied by PerkinElmer. […]
JAK1, JAK2 and JAK3 kinase, ATP and substrates were dissolved and diluted with buffers.
A test liquid was 2 nM Eu-W1024 anti-phosphotyrosine (PerkinElmer, AD0069). A stop buffer was 10 mM edetic acid (Intech, 1842C505).
2.5 μl of an 8-fold solution of the compound and 5 μl of a 4-fold solution of JAK1 or JAK2 or JAK3 kinase were added into a 384-well plate, respectively, and reacted for 10 minutes at room temperature. 2.5 μl of an 8-fold solution of ULight™-JAK-1 peptide/ATP was added and reacted for 90 minutes at room temperature. Finally, 5 μl of 4-fold edetic acid stop buffer and 5 μl of 4-fold test liquid of Eu-W1024 anti-phosphotyrosine were added and incubated for 60 minutes.
According to the formula: percentage of inhibition rate=(maximum value−transform value)/(maximum value−minimum value)×100, inhibition rate of each compound at various concentrations was calculated. The maximum value was the reference value of dimethyl sulfoxide added into the well plate, the minimum value was the blank value, and the transform value is the value obtained by the well of each compound. The IC50 values of the corresponding compounds were then obtained by fitting by using the XLFit fitting tool in excel.

Sprague-Dawley (SD) mice = experiment: Concanavalin-induced paw swelling in mice; type: in vivo; conditions: 10 mg/kg intragastric
Description: (§1) The inhibiting effects of compounds H13, H14, H09, H11 and compounds of Example 12 on paw swelling in […] were determined after intragastric administration by using Sprague-Dawley (SD) […] (ShanghaiSippr-BK laboratory animal Co. Ltd.), aged 6-7 weeks and weighing 160-180 g as test animals. The anti-inflammatory pharmacodynamics characteristic of the compounds of the invention was discussed.
A certain amount of compounds were taken and dissolved in 4% Tween 80/0.5% hydroxy propyl methyl cellulose solution.
Mice were given compounds H01, H07, H11, H12, H14, H15, H22, H25, H29, H30, H33, H39, and H44 and the positive drug indomethacin (Diamond Reagent Co., Ltd., China) by intragastric administration at the dosages shown in the table below and 0.1 ml 0.03% (W/V) concanavalin was injected subcutaneously into the plantar 0.5 h later. A paw volume was measured with a paw swelling meter before modeling and 1 h, 2 h, 4 h and 6 h after modeling. According to the formula: paw swelling rate=(paw volume after administration−basic paw volume)/basic paw volume×100, the inhibiting effect of the compounds on paw volume was calculated. The basic paw volume was a paw volume before administration.

male ICR mice = experiment: Carrageenan-induced paw swelling in mice; type: in vivo; conditions: 10 mg/kg intragastric
Description: as §1, with “H01, H07, H11, H12,” for “H13,”, “H15, H22, H25, H29, H30, H33, H39” for “H09, H11”, “H44” for “compounds of Example 12”, “male ICR” for “Sprague-Dawley (SD)”, “8” for “6-7”, “22-24” for “160-180”
A certain amount of compounds were taken and dissolved in 4% Tween 80/0.5% hydroxy propyl methyl cellulose solution. A volume of intragastric administration in mice was 10 ml/kg.
Mice were given 10 mg/kg compounds H01, H07, H11, H12, H14, H15, H22, H25, H29, H30, H33, H39, and H44 and the positive drug indomethacin (Diamond Reagent Co., Ltd., China) by intragastric administration at the dosages shown in the table below and 20 μL 1% (W/V) carrageenan was injected subcutaneously into the plantar 0.5 h later. A paw volume was measured with a paw swelling meter before and at different time points after modeling (0.5 h, 1 h and 2 h). According to the formula: paw swelling rate=(paw volume after administration−basic paw volume)/basic paw volume×100, the inhibiting effect of the compounds on paw volume was calculated. The basic paw volume was a paw volume before administration.

Row | SMILES | IC50 (Blast T cell) | IC50 (TF-1 cell) | IC50 (JAK3) | IC50 (JAK2) | IC50 (JAK1) | JAK2/JAK1 (JAK1) | further results
1 | CC[C@@H]1CN(C(=O)NCC(F)(F)F)CC1N(C)c1c(C#N)cnc2[nH]ccc12 (stereo partly shown) [Compound H02] | 0.48 µM | 1.34 µM | – | – | – | – | –
2 | CN(c1c(C#N)cnc2[nH]ccc12)[C@H]1C[C@@H]2CN(C(=O)Nc3nc(C4CC4)ns3)C[C@@H]2C1 [Compound H26, (3aR,5s,6aS)-5-((5-cyano-1H-pyrrolo[2,3-b]pyridin-4-yl)(methyl)amino)-N-(3-cyclopropyl-1,2,4-thiadiazole-5-yl)hexahydrocyclopentadiene[c]pyrrole-2(1H)-carboxamide] | 0.027 µM | 1.98 µM | 101 nM | 18 nM | 2.6 nM | 6.92 | –
3 | CNc1nsc(NC(=O)N2C[C@H]3C[C@H](N(C)c4c(C#N)cnc5[nH]ccc45)C[C@H]3C2)n1 [Compound H41, (3aR,5s,6aS)-5-((5-cyano-1H-pyrrolo[2,3-b]pyridin-4-yl)(methyl)amino)-N-(3-(methylamino)-1,2,4-thiadiazole-5-yl)hexahydrocyclopentadiene[c]pyrrole-2(1H)-carboxamide] | 0.055 µM | 1.64 µM | – | – | – | – | –
4 | COc1ccc2c(c1)c(CC(=O)O)c(C)n2C(=O)c1ccc(Cl)cc1 [Indomethacin, reference compound] | – | – | – | – | – | – | Paw swelling rate_1 h (%) (Sprague-Dawley (SD) mice; 1 h): 34.00 ± 2.30%; Paw swelling rate_2 h (%) (Sprague-Dawley (SD) mice; 2 h): 44.80 ± 3.00%; Paw swelling rate_4 h (%) (Sprague-Dawley (SD) mice; 4 h): 42.70 ± 2.00%; Paw swelling rate_6 h (%) (Sprague-Dawley (SD) mice; 6 h): 36.20 ± 2.00%; Paw swelling_0.5 h (%) (male ICR mice; 0.5 h): 32.91 ± 3.22%; Paw swelling rate_1 h (%) (male ICR mice; 1 h): 42.21 ± 4.64%; Paw swelling rate_2 h (%) (male ICR mice; 2 h): 55.10 ± 2.21%
5 | CC[C@@H]1CC(NS(=O)(=O)c2cccc3nonc23)C[C@@H]1Nc1c(C#N)cnc2[nH]ccc12 (stereo partly shown) [Compound H58, N-(3-((5-cyano-1H-pyrrolo[2,3-b]pyridin-4-yl)amino)-4-ethylcyclopentyl)benzo[c][1,2,5] oxadiazole-4-sulfamide] | 0.041 µM | 0.98 µM | – | – | – | – | –
6 | N#Cc1cnc2[nH]ccc2c1N[C@H]1C[C@@H](NS(=O)(=O)c2cccc3nonc23)C1 [Compound H19, (cis)-4-{[3-(benzo[c][1,2,5]oxadiazole-4-sulfonamido)-cyclobutyl-1-yl]-amino}-1H-pyrrolo[2,3-b]pyridin-5-carbonitrile] | 0.024 µM | 2.3 µM | – | – | – | – | –
7 | N#Cc1cnc2[nH]ccc2c1NC1CCN(S(=O)(=O)c2cccc(C(F)(F)F)c2)CC1 [Compound H34] | 0.044 µM | 1.54 µM | – | – | – | – | –
8 | CC[C@@H]1CN(C(=O)CCC(F)(F)F)C[C@@H]1Nc1c(C#N)cnc2[nH]ccc12 (relative stereo) [Compound H77, 4-(((cis)-4-ethyl-1-(4,4,4-trifluorobutyryl)pyrrolidin-3-yl)amino)-1H-pyrrolo[2,3-b]pyridin-5-carbonitrile] | – | – | 273 nM | 49 nM | 4.2 nM | 11.67 | –
9 | CCC1CN(C(=O)CC#N)CC1Nc1c(C#N)cnc2[nH]ccc12 (stereo not shown) [Compound H78, 4-((4-ethyl-1-(2-cyanoacetyl)pyrrolidin-3-yl)amino)-1H-pyrrolo[2,3-b]pyridin-5-carbonitrile] | – | – | 42 nM | 16 nM | 6 nM | 2.67 | –
10 | CN(c1c(C#N)cnc2[nH]ccc12)[C@H]1C[C@@H]2CN(S(=O)(=O)c3cccc(C(F)(F)F)c3)C[C@@H]2C1 [Compound H24] | – | – | 28 nM | 12.6 nM | 5.1 nM | 2.40 | –
11 | CC[C@@H]1CC(NS(=O)(=O)c2cccc(C(F)(F)F)c2)C[C@@H]1Nc1c(C#N)cnc2[nH]ccc12 (stereo partly shown) [Compound H60, N-(3-((5-cyano-1H-pyrrolo[2,3-b]pyridin-4-yl)amino)-4-ethylcyclopentyl)-3-(trifluoromethyl)benzsulfamide] | – | – | 153 nM | 35 nM | 5.6 nM | 6.25 | –
12 | N#Cc1cnc2[nH]ccc2c1N[C@H]1C[C@@H](NS(=O)(=O)c2ccc(C(F)(F)F)cc2)C1 [Compound H17, (cis)-4-{[3-(4-trifluoromethylbenzenesulfonamido)-cyclobutyl-1-yl]-amino}-1H-pyrrolo[2,3-b]pyridin-5-carbonitrile] | – | – | 27 nM | 13 nM | 5 nM | 2.60 | –
13 | CN(c1c(C#N)cnc2[nH]ccc12)[C@H]1C[C@@H](NS(=O)(=O)CCC(F)(F)F)C1 [Compound H10, 4-{[3-(3,3,3-trifluoropropanesulfonamido)-cyclobutyl-1-yl]-methyl-amino}-1H-pyrrolo[2,3-b]pyridin-5-carbonitrile] | – | – | 143 nM | 36 nM | 4.98 nM | – | –
14 | CC[C@@H]1CN(CCC#N)C[C@@H]1Nc1c(C#N)cnc2[nH]ccc12 (relative stereo) [Compound H88, 4-(((cis)-1-(2-cyanoethyl)-4-ethylpyrrolidin-3-yl)amino)-1H-pyrrolo[2,3-b]pyridin-5-carbonitrile] | – | – | 112 nM | 7.9 nM | 0.86 nM | 9.19 | –
15 | CC[C@@H]1CN(C(=O)Nc2nc(OC)ns2)C[C@@H]1Nc1c(C#N)cnc2[nH]ccc12 [Compound H80, 4-(((cis)-4-ethyl-1-(3-methoxy-1,2,4-thiadiazole-5-aminocarbonyl)pyrrolidin-3-yl)amino)-1H-pyrrolo[2,3-b]pyridin-5-carbonitrile] | – | – | 152 nM | 18.6 nM | 2.9 nM | 6.41 | –
16 | CCOc1noc(NC(=O)N2C[C@H]3C[C@H](N(C)c4c(C#N)cnc5[nH]ccc45)C[C@H]3C2)n1 [Compound H47, (3aR,5s,6aS)-5-((5-cyano-1H-pyrrolo[2,3-b]pyridin-4-yl)(methyl)amino)-N-(3-ethoxy-1,2,4-oxadiazole-5-yl)hexahydrocyclopentadiene[c]pyrrole-2(1H)-carboxamide] | – | – | 130 nM | 20 nM | 2.67 nM | 7.49 | –
